Source: patent publication US20230172882A1, “Method For Treating Pancreatic Cancer” (Lantern Pharma Inc., priority 2020, published 2023)

Tests used:
[1] = tested on: pancreatic cancer cell lines; assay: Cell viability, first study of 4 pancreatic cancer cell lines, 72 h; format: cell-based
Method: (§1) Individual cell lines were treated with LP-184 for 72 hours and cell viability was assayed. IC50 values were generated from dose response curves plotted in GraphPad Prism.

[2] = tested on: Capan-1 cell line derived xenograft tumors; assay: Capan-1 cell line derived xenograft tumors in SCID mice; format: in vivo; conditions: 3 mg/kg intraperitoneal, thrice weekly for 3 weeks; end of study period, 60 days
Method: All animal studies were carried out in compliance with National Institutes of Health Guidelines for animals. The doses were selected to be tolerated in xenografts. Capan-1 cell line derived xenograft tumors were implanted in SCID mice and treated either with (a) vehicle control of 95% saline/5% ethanol (N=3) or (b) 3 mg/kg LP-184 (N=5) administered by intraperitoneal injection over thrice weekly doses for 3 weeks. In other words, one group was treated with LP-184 and the other group was treated with the vehicle control.

[3] = tested on: pancreatic cancer cell lines; assay: Cell viability, second study of pancreatic cancer cell lines, 72 h; format: cell-based; conditions: treated 72 hours, range across cell lines (FIG. 2), read-out: cytotoxicity in terms of IC50 value
Method: as §1

HydroxyUreaMethyl Acylfulvene [LP-184]
potency in pancreatic cancer cell lines ([1]; FIG. 1 and FIG. 2, 72 hours): nanomolar potency | IC50 ([1]; first study of 4 pancreatic cancer cell lines, treated 72 hours, range across cell lines (FIG. 1), read-out: cytotoxicity in terms of IC50 values): 110 to 310 nM | tumor volume growth / tumor regression [2]: Complete tumor regression | IC50 [3]: 130 to 180 nM
